Assay [1] addresses T1, mouse SLC26A6b (Mus musculus, UniProt Q8CIW6, R572P).
T1 construct: Full-length mouse SLC26A6b and SLC26A 1 cDNAs were cloned into the Xenopus expression vector pGEMHE; expressed in transfected cells; host or cells: Xenopus laevis oocytes injected with in vitro transcribed cRNA (pGEMHE)
T1 sequence (Q8CIW6 24-758 R572P limits assumed): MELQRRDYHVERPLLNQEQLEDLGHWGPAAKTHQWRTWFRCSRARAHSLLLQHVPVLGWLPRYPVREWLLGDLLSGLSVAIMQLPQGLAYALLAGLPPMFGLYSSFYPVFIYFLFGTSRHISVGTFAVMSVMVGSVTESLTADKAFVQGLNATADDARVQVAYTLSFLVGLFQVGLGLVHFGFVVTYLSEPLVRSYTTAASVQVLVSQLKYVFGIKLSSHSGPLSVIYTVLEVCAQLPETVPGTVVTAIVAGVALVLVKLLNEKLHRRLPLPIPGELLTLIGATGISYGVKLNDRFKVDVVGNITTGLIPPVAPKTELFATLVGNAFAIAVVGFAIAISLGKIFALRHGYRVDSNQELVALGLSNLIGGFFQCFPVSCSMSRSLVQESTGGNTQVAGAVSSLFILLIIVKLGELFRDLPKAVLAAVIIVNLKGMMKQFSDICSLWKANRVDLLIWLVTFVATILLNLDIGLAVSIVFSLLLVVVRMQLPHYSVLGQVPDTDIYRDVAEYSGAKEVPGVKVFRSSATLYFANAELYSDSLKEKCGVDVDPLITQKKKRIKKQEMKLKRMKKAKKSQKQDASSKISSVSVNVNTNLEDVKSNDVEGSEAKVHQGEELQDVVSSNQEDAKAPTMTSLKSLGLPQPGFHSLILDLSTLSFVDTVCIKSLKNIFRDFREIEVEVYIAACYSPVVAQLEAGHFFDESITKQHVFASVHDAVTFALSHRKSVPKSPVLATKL
The assay is described as follows: Radiolabelled anion uptake/exchange in Xenopus oocytes expressing mouse SLC26A6b. It is filed as cell-based. Particulars: for cis-inhibition of SO4 2− transport / cis-inhibition of Cl−—Cl− exchange: 25 mM of the anion; for cis-inhibition of SO4 2− transport: 35SO4 uptake one hour (FIG. 7B); for cis-inhibition of Cl−—Cl− exchange: 36Cl− uptake one hour (FIG. 7A); for exchange of SO4 2− with extracellular anion (trans-stimulation of 35SO4 efflux): 10 mM of the anion, 30 minutes (FIG. 7C); for 36Cl− uptake: 8.3 mM 36Cl. The procedure:
(§1) Full-length mouse SLC26A6b and SLC26A 1 cDNAs were cloned into the Xenopus expression vector pGEMHE (Liman et al., 1992). The SLC26A6 and SLC26A1 expression constructs were linearized, and cRNA was transcribed in vitro using T7 RNA polymerase and a […] MMACHINE® transcription kit (Ambion, Inc. of Austin, Tex., United States of America). Defolliculated oocytes were injected with 25 nl to 50 nl of water or with a solution containing cRNA at a concentration of 0.5 μg/μl (12.5 ng to 25 ng per oocyte) using a Nanoliter-2000 injector (WPI Instruments of Sarasota, Fla., United States of America). Oocytes were incubated at 17° C. in 50% Leibovitz's L-15 media supplemented with penicillin/streptomycin (1000 units/ml) and glutamine for 2-3 days for uptake assays.
(§2) For sulphate uptake assays, oocytes were pre-incubated for 20 minutes in chloride-free uptake medium (100 mM NMDG gluconate, 2 mM potassium gluconate, 1 mM calcium gluconate, 1 mM magnesium gluconate, 10 mM HEPES-Tris, pH 6.0 or pH 7.5 as indicated), followed by a 60-minute period for uptake in the same medium supplemented with 1 mM K2^35SO4 (40 μCi/ml). The cells were then washed three times in uptake buffer with 5 mM cold K2SO4 to remove tracer activity in the extracellular fluid. The oocytes were dissolved individually in 10% SDS, and tracer activity was determined by scintillation counting. Uptake of chloride, formate, and oxalate was assayed using the same chloride-free uptake solutions, substituting 8.3 mM ^36Cl, 500 μM [^14C]oxalate, or 50 μM [^14C]formate for labeled sulphate.
(§3) For sulphate exchange and cis-inhibition experiments, the concentration of NMDG-gluconate in the uptake solution was adjusted to maintain isotonic osmolality, which was confirmed experimentally using a FISKE® osmometer (Fiske Associates, Inc. of Bethel, Conn., United States of America).

A further assay relates to xPDS2. The assay is described as follows: Anion transport in Xenopus oocytes expressing xPDS2. It is filed as cell-based, Xenopus laevis. The text has this: (§4) One or more of these xPDS genes likely corresponds to the Xenopus descendant of mammalian SLC26A3.
Another assay concerns the target mouse SLC26A2 (Mus musculus, UniProt Q62273). The method, then:
as §2

The next assay concerns the target T2, mouse SLC26A1 (Mus musculus, UniProt P58735, C691Y).
T2 construct: Full-length mouse SLC26A6b and SLC26A 1 cDNAs were cloned into the Xenopus expression vector pGEMHE; expressed in transfected cells; host or cells: Xenopus laevis oocytes injected with in vitro transcribed cRNA (pGEMHE)
T2 sequence (P58735 1-704 C691Y): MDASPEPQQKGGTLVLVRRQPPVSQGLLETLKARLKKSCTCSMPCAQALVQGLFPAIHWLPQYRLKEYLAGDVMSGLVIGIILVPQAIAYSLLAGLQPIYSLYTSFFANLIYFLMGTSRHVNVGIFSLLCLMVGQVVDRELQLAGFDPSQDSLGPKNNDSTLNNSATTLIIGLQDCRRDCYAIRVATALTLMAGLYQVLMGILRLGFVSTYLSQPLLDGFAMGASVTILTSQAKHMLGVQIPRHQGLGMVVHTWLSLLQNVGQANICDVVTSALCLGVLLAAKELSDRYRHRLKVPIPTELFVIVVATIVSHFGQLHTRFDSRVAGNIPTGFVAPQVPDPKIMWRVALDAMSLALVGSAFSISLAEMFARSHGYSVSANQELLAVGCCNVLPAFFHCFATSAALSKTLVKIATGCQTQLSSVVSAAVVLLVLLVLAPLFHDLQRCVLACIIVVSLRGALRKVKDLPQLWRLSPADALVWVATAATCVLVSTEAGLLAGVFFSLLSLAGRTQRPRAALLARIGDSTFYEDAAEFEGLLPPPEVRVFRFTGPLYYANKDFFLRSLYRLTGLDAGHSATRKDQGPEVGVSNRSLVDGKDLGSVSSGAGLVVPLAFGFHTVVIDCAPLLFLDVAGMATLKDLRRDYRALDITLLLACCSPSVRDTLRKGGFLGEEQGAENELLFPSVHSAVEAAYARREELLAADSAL
The assay is described as follows: Radiolabelled anion uptake in Xenopus oocytes expressing mouse SLC26A1. It counts as cell-based. The conditions noted are these: for effect of extracellular anion on SO4 2− transport via SLC26A1: 25 mM of the anion (FIG. 9A, 6C); for transport via SLC26A1: FIG. 6B, FIG. 8B. The procedure:
as §1, §2, §3

The subject of another assay is xPDS1. The assay is described as follows: Anion transport in Xenopus oocytes expressing xPDS1. It counts as cell-based, Xenopus laevis.
Text: as §4

Another assay deals with human SLC26A6. The text has this:
FIG. 13 depicts chloride uptake in Xenopus oocytes expressing Xenopus xPDS2, human SLC26A3 (DRA), mouse Slc26a6, and human SLC26A6, with extracellular pH of 7.5 (open bars) or 6.0 (dark fill).
FIG. 15 depicts sulphate transport mediated by Xenopus oocytes expressing human SLC26A6, at varying concentrations of extracellular SO4^2− and constant amounts of tracer ^35SO4^2−.
A feature of the mammalian SLC26 gene family is relatively low conservation between orthologs in mouse and man; the percent amino acid identity ranges from a low of 76% (SLC26A8) to a high of 90% (SLC26A9), versus the reported median of 86% for mouse and human orthologous genes. Makalowski, W. & Boguski, 1998. This sequence divergence is reflected in functional variation, which can be exploited for structure-function analysis.

The subject of a further assay is xSLC26A6. The conditions noted are these: FIG. 17.
Text: as §4

A further assay deals with xPDS3. The assay is described as follows: Anion transport in Xenopus oocytes expressing xPDS3. It is filed as cell-based, Xenopus laevis.
Text: as §4

In assay [2] the target is T1, mouse SLC26A6b. The assay is described as follows: Radiolabelled anion uptake/exchange in Xenopus oocytes expressing mouse SLC26A6b. It is filed as cell-based. The conditions noted are these: pH 7.4; DIDS 1 mM (FIG. 6A).
The next assay addresses rat SLC26A1 (Rattus norvegicus, UniProt P45380). The conditions noted are these: Satoh et al., 1998; cited from earlier work.
The target in another assay is SLC26A1 (Rattus norvegicus, UniProt P45380). The conditions noted are these: Markovich & James, 1999; cited from earlier work.
SLC26A1, sequence (P45380 whole entry): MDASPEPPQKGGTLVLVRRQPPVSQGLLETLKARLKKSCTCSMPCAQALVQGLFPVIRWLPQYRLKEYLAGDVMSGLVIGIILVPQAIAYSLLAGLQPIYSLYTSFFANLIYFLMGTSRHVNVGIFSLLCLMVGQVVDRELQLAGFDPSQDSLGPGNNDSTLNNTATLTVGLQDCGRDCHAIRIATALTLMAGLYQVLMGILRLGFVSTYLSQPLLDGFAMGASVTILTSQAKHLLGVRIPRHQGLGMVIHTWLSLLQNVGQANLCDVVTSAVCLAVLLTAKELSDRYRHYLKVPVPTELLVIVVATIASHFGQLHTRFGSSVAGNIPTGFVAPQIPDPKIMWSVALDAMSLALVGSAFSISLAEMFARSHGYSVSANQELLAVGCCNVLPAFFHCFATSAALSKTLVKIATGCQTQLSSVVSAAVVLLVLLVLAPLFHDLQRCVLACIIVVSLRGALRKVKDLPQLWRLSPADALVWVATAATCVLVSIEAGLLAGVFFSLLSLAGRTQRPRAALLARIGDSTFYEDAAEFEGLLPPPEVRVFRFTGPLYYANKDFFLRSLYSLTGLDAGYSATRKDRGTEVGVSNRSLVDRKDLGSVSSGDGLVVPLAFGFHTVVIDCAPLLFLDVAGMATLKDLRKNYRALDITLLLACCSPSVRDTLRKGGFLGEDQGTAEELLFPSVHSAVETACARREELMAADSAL

mouse SLC26A2, sequence (Q62273 whole entry): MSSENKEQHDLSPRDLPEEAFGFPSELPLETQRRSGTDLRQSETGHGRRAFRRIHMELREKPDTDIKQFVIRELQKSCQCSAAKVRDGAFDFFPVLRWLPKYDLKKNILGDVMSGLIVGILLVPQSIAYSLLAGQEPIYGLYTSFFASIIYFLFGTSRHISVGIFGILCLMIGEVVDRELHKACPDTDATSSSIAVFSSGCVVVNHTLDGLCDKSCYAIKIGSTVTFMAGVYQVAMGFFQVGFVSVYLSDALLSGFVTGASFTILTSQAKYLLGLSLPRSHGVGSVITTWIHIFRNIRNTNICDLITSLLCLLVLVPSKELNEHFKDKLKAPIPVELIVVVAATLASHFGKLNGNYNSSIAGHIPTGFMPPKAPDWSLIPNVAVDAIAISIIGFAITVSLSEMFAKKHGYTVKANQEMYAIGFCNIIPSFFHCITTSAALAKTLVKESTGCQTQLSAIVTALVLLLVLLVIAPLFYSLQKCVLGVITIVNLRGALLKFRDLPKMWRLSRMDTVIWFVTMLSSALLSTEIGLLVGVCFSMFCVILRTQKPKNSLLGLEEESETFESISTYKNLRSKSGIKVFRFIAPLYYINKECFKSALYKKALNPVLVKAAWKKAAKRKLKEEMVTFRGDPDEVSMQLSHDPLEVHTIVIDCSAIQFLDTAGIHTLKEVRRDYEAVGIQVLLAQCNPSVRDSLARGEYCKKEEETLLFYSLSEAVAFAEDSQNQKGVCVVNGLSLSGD
rat SLC26A1, sequence (P45380 whole entry): as the sequence (P45380 whole entry) above

As to `Br` [Br^−], at mouse SLC26A6b [1], the “cis-inhibition of SO4 2− transport” value was “cis-inhibitory” and the “cis-inhibition of Cl−—Cl− exchange” value is listed as “cis-inhibitory”.

Regarding `Cl` [Cl^−, chloride], the “Cl− transport” value is recorded as “robust” in the assay with xPDS2 (FIG. 17); “robust” in the assay with xPDS1 (FIG. 17); “clearly transports” in the assay with human SLC26A6 (FIG. 13); “robust” with xSLC26A6; “robust” in the assay with xPDS3 (FIG. 17). Also, the “effect of extracellular Cl− on 35SO4 2− uptake” value at mouse SLC26A2 (25 mM Cl− (FIG. 10B)) is on record as “significantly inhibited”. The “effect of extracellular anion on SO4 2− transport via SLC26A1” value (“effect of extracellular anion” below) at mouse SLC26A1 is on record as “much higher”. Besides, the “transport via SLC26A1” value on mouse SLC26A1 is on record as “not transported”. The “Cl−—Cl− exchange” value on mouse SLC26A1 (presence or absence of 25 mM SO4 2−) is given as “minimal”. At mouse SLC26A6b [1], the “exchange of SO4 2− with extracellular anion (trans-stimulation of 35SO4 efflux)” value (“exchange … (trans-stimulation of 35SO4 efflux)” below) was “clearly mediated exchange”. The entries for the “36Cl− uptake” value on mouse SLC26A6b [1] (pH 6.0) and on mouse SLC26A6b [1] (pH 7.4) were 4193±109 pmol/oocyte/hour and 4345±243 pmol/oocyte/hour, respectively.

For `O=S(=O)(O)c1cc(N=C=S)ccc1C=Cc1ccc(N=C=S)cc1S(=O)(=O)O` [DIDS, 4,4′-diisothiocyanatostilbene-2,2′-disulfonic acid], the “sulphate uptake, sensitivity to DIDS” value on mouse SLC26A6b [2] was 301±24 pmol/oocyte/hour; on mouse SLC26A6b [1] (pH 6.0, DIDS 1 mM (FIG. 6A)) it was 101±10 pmol/oocyte/hour.

Consider `O=C(O)O` [HCO3^−, bicarbonate], for which the “activation of SO4 2− uptake” value at rat SLC26A1 was “does not activate”.

Consider `I` [I^−, iodide], for which, on mouse SLC26A6b [1], the “cis-inhibition of SO4 2− transport” value was “cis-inhibitory” and the “cis-inhibition of Cl−—Cl− exchange” value is “cis-inhibitory”.

Regarding `O=CO` [formate], at mouse SLC26A1, the “effect of extracellular anion” value is reported as “activate” and the “transport via SLC26A1” value is “not transported”. On mouse SLC26A1 (SLC26A1-injected oocytes), the formate uptake is on record as 7 pmol/oocyte/h. The formate uptake on mouse SLC26A6b [1] (50 μM [14C]formate (FIG. 8B)) is 45±5 pmol/oocyte/hour. On mouse SLC26A6b [1], the “exchange … (trans-stimulation of 35SO4 efflux)” value is given as “clearly mediated exchange” and the “cis-inhibition of Cl−—Cl− exchange” value is on record as “significantly inhibited”.

Take `CC(O)C(=O)O` (stereo not drawn) [lactate]: at mouse SLC26A1, the “effect of extracellular anion” value is given as “activate”. Moreover, the “cis-inhibition of Cl−—Cl− exchange” value at mouse SLC26A6b [1] is recorded as “not lactate significantly inhibited”.

For `O=S(=O)(O)O` [sulphate], the “SO4 2− transport” value in the assay with xPDS2, with xPDS1 and in the assay with xPDS3 was “none of the xPDS clones transport” throughout. Also, the “35SO4 2− uptake” value on mouse SLC26A2 (absence of extracellular Cl− (FIG. 10A)) is listed as “robust”. Further, the “35SO4 2− uptake at pH 6.0” value on mouse SLC26A2 (pH 6.0 versus pH 7.4 (FIG. 10A)) was “increased significantly”. Besides, the “effect of extracellular anion” value on mouse SLC26A1 was “strongly cis-inhibitory”. In addition, the “SO4 2− uptake” value at mouse SLC26A1 (SLC26A1-injected oocytes (FIG. 6A)) is 72±2 pmol/oocyte/h. The “absolute rate of SO4 2− transport” value is listed as around 200 pmol/oocyte/hr with human SLC26A6 (human SLC26A6, increasing extracellular SO4 2− (FIG. 15)) and ~4,000 pmol/oocyte/hr at mouse SLC26A6b [1] (mouse Slc26a6, increasing extracellular SO4 2− (FIG. 14)). For the same compound, the “exchange … (trans-stimulation of 35SO4 efflux)” value at mouse SLC26A6b [1] is on record as “clearly mediated exchange”. Besides, the “cis-inhibition of Cl−—Cl− exchange” value on mouse SLC26A6b [1] was “significantly inhibited”. For the same compound, at mouse SLC26A6b [1] (SLC26A6b-injected oocytes), the “sulphate uptake at pH 7.4 versus pH 6.0” value is listed as “not significantly altered”. Besides, the “sulphate uptake independent of Na+” value on mouse SLC26A6b [1] (SLC26A6b-injected oocytes, Na+-free) came to 652±57 pmol/oocyte/hour. For the same compound, at mouse SLC26A6b [1] (SLC26A6b-injected oocytes, pH 7.4, Cl−-free medium, 1 mM 35SO4), the “sulphate uptake independent of Cl−” value is on record as 602±0 pmol/oocyte/hour.

For mercury, on SLC26A1, the “effect on maximal sulphate transport via SLC26A1” value is listed as “strongly inhibited”.
